Measurements reported in patent US20200299155A1, “BIOCIDAL COMPOSITIONS INCLUDING A PHOSPHONIUM QUATERNARY CATIONIC SURFACTANT AND METHODS FOR USING SAME” (Rhodia Operations, priority 2019, published 2020).

Tests used:
[1] = Physical compatibility studies (mixtures in vials, visual); type: physicochemical; settings: for compatibility with VDPA copolymer: in the presence of VDPA copolymer
Method: A first set of samples was made by combining Didecyldimethylammonium chloride (DDAC) Ammonium Quaternary Cationic Surfactant, and Tributyl Tetradecyl Phosphonium Chloride (TTPC). These ingredients were combined in a 20 mL borosilicate vial with a plastic cap to a total volume of 10 mLs so that the final concentration of DDAC was 5 wt. % active ingredient and the final concentration of TTPC was 1 wt. % active ingredient. The total volume was achieved by mixing with tap water (WTW). Samples were mixed, capped, and shaken vigorously and allowed to sit at room temperature for up to 24 hours. […] All weight percent values in the examples are wt. % active ingredient.
Another test sample consisted of 20 wt. % THPS, 2 wt. % VDPA copolymer biopenetrant, 4 wt. % DDAC, 4 wt. % TTPC, and 35 wt. % Ethylene Glycol Monobutyl Ether (EGMBE, which was used as a mutual solvent) (wt. % active ingredients) and was mixed as were the samples of Example 1 and brought to a total volume of 13.9 mLs with tap water (WTW).
(§1) Two additional samples were made. One was TTPC aqueous solution (50 wt. % a.i.) which was TTPC alone with the balance water (labelled TTPC). The other sample was made of 95 wt. % TTPC aqueous solution (50 wt. % a.i.) combined with a 5 wt. % VDPA copolymer aqueous solution (50 wt. % a.i.)(labelled TTPC+ESL). Thus, the final concentration on an active ingredient basis was 47.5% wt. % TTPC and 2.5 wt. % VDPA copolymer with the balance water. This comparison was made to determine the compatibility of the mixture without mutual solvent.

[2] = Storage stability of TTPC+ESL mixture at different temperatures; type: physicochemical; settings: −25° C.
Text: as §1
However, the sample was frozen at −25° C. TTPC was also frozen at −25 C.

[3] = system: Pseudomonas aeruginosa; assay: Biocidal efficacy study, Modified Robbins Device culture/biofilm; type: cell-based; settings: 100 ppm dosed, FIG. 4
Method: To test biocidal efficacy of TTPC in the presence of VDPA anionic copolymer two additional samples were made. One was 50 wt. % TTPC (a.i.) alone with the balance water (labelled TTPC). The other was TTPC combined with VDPA copolymer with the balance water (labelled TTPC A) which was 47.5% TTPC (a.i.) and 2.5% VDPA copolymer biopenetrant. A standard biofilm was grown with Pseudomonas aeruginosa, a known biofilm former and General Heterotrophic Bacteria (GHB), and treated with either the TTPC or TTPC A Series samples. Pseudomonas aeruginosa was cultured in a media of tryptone soy broth and grown at room temperature with gentle stirring. This culture solution was slowly passed through a Modified Robbins Device (MRD) from Tyler Research for approximately 6 weeks to establish a robust biofilm. Once the film was established, 100 ppm of TTPC Series or TTPC A Series was dosed to the biofilms and the efficacy of the biocide on the microorganisms was measured as shown in FIG. 4.

| Molecule | physical compatibility / appearance in tap water ([1]; balance tap water (WTW), room temperature, up to 24 hours) | compatibility with VDPA copolymer [1] | solubility in water ([1]; water) | state of sample at low temperature [2] | efficacy against planktonic bacteria [3] |
| --- | --- | --- | --- | --- | --- |
| CCCCCCCCCC[N+](C)(C)CCCCCCCCCC.[Cl-] [DDAC, Didecyldimethylammonium chloride] | some cloudiness | will precipitate | sparingly soluble in water |  |  |
| CCCCCCCCCCCCCC[P+](CCCC)(CCCC)CCCC.Cl [TTPC, tributyl-tetradecylphosphonium chloride] |  |  |  | frozen | effective |
| alkyldimethylbenzylammonium chloride [ADBAC] |  | will precipitate |  |  |  |
